# Measurements: US12677825B2, “Composition for protecting islet transplantation” (LG CHEM, LTD., priority 2020, dated 2026)
# System: islets from hIAPP+/− mouse
# Test: GSIS assay after serum-deprived culture
# Type: cell-based
# Conditions: Compound 1 added to medium during serum-deprived culture; FIG. 6E
# Description: Purified hIAPP^+/− FVB/N and C57BL/6J mouse were suspended in RPMI 1640 (Gibco, Grand Island, NY, USA) containing 100 IU/mL penicillin and 100 μg/mL streptomycin, and cultured at 37° C. in a fully humidified 5% CO2 atmosphere. Purified NHP islets were suspended in CMRL 1066 medium (Coming Life Sciences, Tewksbury, MA; catalog number 99-663-CV) containing 100 IU/mL penicillin and 100 μg/mL streptomycin, and cultured at 37° C. in a fully humidified 5% CO2 atmosphere. […]
# After hand-picking and washing with PBS, islets were seeded on 12-mm diameter insert wells (Merck Millipore, Billerica, MA, USA) with 10 islets per well, and preincubated with 60 mg/dL glucose in Kreb's-Ringer buffer (KRB: 129 mM NaCl, 4.8 mM KCl, 2.5 mM CaCl2, 1.2 mM KH2PO4, 5 mM NaHCO3, 10 mM HEPES, and 0.2% BSA) for 90 mM at 37° C. […] Insulin release into the supernatant by the mouse islets was measured by ELISA (ALPCO, Salem, NH, USA) and a multiplex kit (Merck Millipore), respectively.
smiles,measurement,value
O=S1(=O)CCN(Cc2cc(NC3CCOCC3)c3[nH]c(-c4ccccc4)cc3c2)CC1 [Compound 1],stimulation index,significantly increased
